This note sets out measurements from PubChem BioAssay (NCI).

Among the test systems are CCRF-CEM leukemia; EKVX NSCLC; HCT-116 colon; HCT-15 colon; KM12 colon; OVCAR-3 ovarian; SF-295 CNS; SR leukemia; U251 CNS; PC-3 prostate.
Common to all, as to assay: NCI anticancer screen, dose series, 48 h

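Values below derive from 48-hour exposures of cells grown in 96-well plates, with endpoints linearly interpolated between the two concentrations bracketing the appropriate inhibition level. TGI: concentration producing complete growth inhibition.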 Bounds are passed on as bounds.

On to `c1ccc(C2[C@@H]3CCCc4ccccc4C3=NN2c2ccccc2)cc1` (some centres undefined), for which the TGI in the experiment on CCRF-CEM leukemia, in the experiment with EKVX NSCLC, in the experiment on HCT-116 colon, with HCT-15 colon, in the experiment on KM12 colon and in the experiment on OVCAR-3 ovarian was greater than 100 µM in each case. Further, the TGI in the experiment on SF-295 CNS, in the experiment on SR leukemia and in the experiment with U251 CNS was greater than 100 µM each time.
On to `Cc1cc(C)c(N=Nc2c(O)c(S(=O)(=O)O)cc3cc(S(=O)(=O)O)ccc23)cc1C`, for which the TGI with CCRF-CEM leukemia, in the experiment with EKVX NSCLC, in the experiment on HCT-116 colon, with HCT-15 colon, with KM12 colon and in the experiment with OVCAR-3 ovarian was greater than 100 µM throughout. The TGI with PC-3 prostate, in the experiment with SF-295 CNS and in the experiment with U251 CNS was greater than 100 µM throughout.
As for `Cc1ccc2c(=O)c(-c3n[nH]c(=S)s3)c[nH]c2n1`, the TGI with CCRF-CEM leukemia, in the experiment on EKVX NSCLC, in the experiment on HCT-116 colon, in the experiment with HCT-15 colon, in the experiment on KM12 colon and with OVCAR-3 ovarian was greater than 100 µM each time. Besides, the TGI in the experiment with PC-3 prostate, in the experiment on SF-295 CNS and in the experiment on U251 CNS was greater than 100 µM throughout.
As to `C[N+](C)(C)CC1CCCC/C1=N\O` (centres undefined), the TGI in the experiment with CCRF-CEM leukemia, in the experiment with EKVX NSCLC, with HCT-116 colon, in the experiment on HCT-15 colon, in the experiment on KM12 colon and in the experiment on OVCAR-3 ovarian was greater than 100 µM each time. Also, the TGI with SF-295 CNS and in the experiment with U251 CNS was greater than 100 µM each time.
Regarding `COC(=O)C1C2CC3C(OC(=O)C31)C2OC(=O)[C@](OC)(c1ccccc1)C(F)(F)F` (some centres undefined), the TGI in the experiment on CCRF-CEM leukemia, with EKVX NSCLC, with HCT-116 colon, in the experiment on HCT-15 colon, with KM12 colon and in the experiment with OVCAR-3 ovarian was greater than 100 µM throughout. The TGI with SR leukemia and in the experiment with U251 CNS was greater than 100 µM throughout.
`O=[N+]([O-])c1cc(Cl)ccc1S(=O)(=O)N1CCCc2cc(Cl)ccc21`: the TGI in the experiment with CCRF-CEM leukemia, in the experiment on EKVX NSCLC, with HCT-116 colon, with HCT-15 colon, with KM12 colon and in the experiment with OVCAR-3 ovarian was greater than 100 µM each time. Also, the TGI in the experiment with PC-3 prostate and in the experiment with SF-295 CNS was greater than 100 µM each time.
Consider `NCCCC[C@H](N)C(=O)Nc1ccc(-c2nc3ccccc3s2)cc1Cl`, for which the TGI in the experiment with CCRF-CEM leukemia came to 14.7 µM; in the experiment on EKVX NSCLC it was 19.6 µM; in the experiment on HCT-116 colon, 1.93 µM; with HCT-15 colon, 20.5 µM; in the experiment on KM12 colon, 7.81 µM; with OVCAR-3 ovarian, 19.2 µM. In addition, the TGI in the experiment on PC-3 prostate was 31.2 µM; with SF-295 CNS, 10.2 µM; with U251 CNS, 13.7 µM.
In the case of `OC(c1ccccc1)(c1cccnc1)C(O)(c1ccccc1)c1cccnc1` (centres undefined), the TGI in the experiment on CCRF-CEM leukemia, with EKVX NSCLC, in the experiment with HCT-116 colon, in the experiment on HCT-15 colon, in the experiment with KM12 colon and in the experiment with PC-3 prostate was greater than 100 µM in each case. In addition, the TGI in the experiment with SF-295 CNS and with U251 CNS was greater than 100 µM throughout.
Take `CC(=O)CC(=O)/C=C/c1cccs1`: the TGI with CCRF-CEM leukemia, in the experiment with EKVX NSCLC, with HCT-116 colon, in the experiment with HCT-15 colon, in the experiment with KM12 colon and in the experiment on OVCAR-3 ovarian was greater than 100 µM throughout. Also, the TGI in the experiment with SF-295 CNS, with SR leukemia and with U251 CNS was greater than 100 µM in each case.
In the case of `COc1ccc2c(c1)-c1[nH]c3ccccc3c1CC2`, the TGI with CCRF-CEM leukemia worked out at 50.8 µM; with EKVX NSCLC, 21.9 µM; in the experiment on HCT-116 colon, 31.8 µM; in the experiment with HCT-15 colon, 29.6 µM; in the experiment with KM12 colon, 26.8 µM; with OVCAR-3 ovarian, 33.2 µM. In addition, the TGI in the experiment with PC-3 prostate stood at 29.6 µM; in the experiment with SF-295 CNS it was 27.3 µM; in the experiment on U251 CNS it was 30.8 µM.
For `Cc1cccc(NC2=NCCO2)c1Cl`, the TGI in the experiment with CCRF-CEM leukemia, in the experiment on EKVX NSCLC, with HCT-116 colon, in the experiment on HCT-15 colon, in the experiment on KM12 colon and in the experiment on SF-295 CNS was greater than 100 µM each time. The TGI in the experiment with SR leukemia and in the experiment on U251 CNS was greater than 100 µM throughout.
For `CC(C)(C)OC(=O)N1N=NC2C3OC(CC3=O)C21` (centres undefined), the TGI with CCRF-CEM leukemia, in the experiment with EKVX NSCLC, in the experiment with HCT-116 colon, with HCT-15 colon, in the experiment with OVCAR-3 ovarian and in the experiment on SR leukemia was greater than 100 µM each time. In addition, the TGI in the experiment with U251 CNS is greater than 100 µM.
Turning to `NC(=O)N/N=C(/c1nc2ccc([N+](=O)[O-])cc2[nH]c1=O)C(O)c1ccco1` (centres undefined), the TGI in the experiment with CCRF-CEM leukemia is greater than 100 µM; with HCT-116 colon, greater than 100 µM; in the experiment with HCT-15 colon, 61 µM; in the experiment with OVCAR-3 ovarian, greater than 100 µM; in the experiment with SF-295 CNS it was greater than 100 µM; in the experiment with SR leukemia, greater than 100 µM. This molecule also returned a TGI with U251 CNS greater than 100 µM.
As for `O=C1NC2(C=Cc3c(ccc4ccccc34)O2)Oc2ccccc21` (centres undefined), the TGI in the experiment on CCRF-CEM leukemia is 32.1 µM; in the experiment with EKVX NSCLC it was 82.3 µM; in the experiment on HCT-116 colon, 40.8 µM; in the experiment with HCT-15 colon it was 71.2 µM; in the experiment with KM12 colon, 41.1 µM; with OVCAR-3 ovarian, 59.8 µM. Moreover, the TGI in the experiment on SF-295 CNS was found to be 67.5 µM; in the experiment on SR leukemia, 34.5 µM; with U251 CNS, 62.5 µM.
For the molecule `CC(=O)N(CN1C(=O)CCC1C(=O)O)c1ccccc1Cl` (centres undefined), the TGI in the experiment with CCRF-CEM leukemia, with EKVX NSCLC, in the experiment with HCT-116 colon, in the experiment on HCT-15 colon, with KM12 colon and with OVCAR-3 ovarian was greater than 100 µM each time. Moreover, the TGI in the experiment with PC-3 prostate, with SF-295 CNS and in the experiment on U251 CNS was greater than 100 µM each time.
Regarding `CC(C)N(C(C)C)P(OCCC#N)OC1CC(n2cnc3c(=O)[nH]cnc32)OC1COC(=O)NCCCCCCNC(=O)OC(C)(C)c1ccc(-c2ccccc2)cc1` (centres undefined), the TGI with CCRF-CEM leukemia was 43.8 µM; in the experiment on EKVX NSCLC it was greater than 100 µM; in the experiment with HCT-116 colon it was greater than 100 µM; with HCT-15 colon, greater than 100 µM; in the experiment on KM12 colon it was 35.5 µM; in the experiment on SF-295 CNS it was greater than 100 µM. In the experiment on U251 CNS, this molecule displayed a TGI of 43 µM.
Consider `Brc1cccc[n+]1-c1ccc2cc(-[n+]3ccccc3Br)ccc2c1`, for which the TGI in the experiment with CCRF-CEM leukemia was greater than 100 µM; in the experiment on EKVX NSCLC, greater than 100 µM; with HCT-116 colon, greater than 100 µM; in the experiment on HCT-15 colon, greater than 100 µM; in the experiment with KM12 colon, 40 µM; in the experiment on OVCAR-3 ovarian, 46.4 µM. Besides, the values for the TGI in the experiment with PC-3 prostate, with SF-295 CNS and in the experiment with U251 CNS were greater than 100 µM, greater than 100 µM and 29.8 µM, respectively.
In the case of `OCC(O)C(O)C(O)C(O)/C=N/Nc1nc(O)c(/C=C2\C=Nc3ccccc32)[nH]1` (centres undefined), the TGI with CCRF-CEM leukemia, in the experiment with EKVX NSCLC, with HCT-116 colon, with HCT-15 colon, in the experiment with KM12 colon and in the experiment with OVCAR-3 ovarian was greater than 100 µM throughout. Moreover, the values for the TGI in the experiment with PC-3 prostate, with SF-295 CNS and in the experiment with U251 CNS were 97.5 µM, greater than 100 µM and greater than 100 µM, respectively.
In the case of `C/C=C1\CC(C(=O)OCC)CCCCCCCCCCC1=O` (centres undefined), the TGI in the experiment on CCRF-CEM leukemia, in the experiment on EKVX NSCLC, in the experiment on HCT-116 colon, in the experiment with HCT-15 colon, in the experiment on KM12 colon and in the experiment on PC-3 prostate was greater than 100 µM each time. Also, the TGI with SF-295 CNS and in the experiment with U251 CNS was greater than 100 µM each time.
`CN1B(c2ccccc2)N(C)C(=O)N(C)C1=O`: the TGI with CCRF-CEM leukemia, with EKVX NSCLC, in the experiment with HCT-116 colon, with HCT-15 colon, in the experiment with KM12 colon and in the experiment with PC-3 prostate was greater than 100 µM each time. The TGI with SF-295 CNS and in the experiment with U251 CNS was greater than 100 µM throughout.
For `CC1CN=C(c2ccc(COc3ccc(C4=NCC(C)N4)cc3)cc2)N1` (centres undefined), the TGI in the experiment on CCRF-CEM leukemia, in the experiment on EKVX NSCLC, in the experiment with HCT-116 colon, in the experiment on HCT-15 colon, with KM12 colon and in the experiment on OVCAR-3 ovarian was greater than 100 µM each time. The TGI in the experiment on PC-3 prostate, with SF-295 CNS and with U251 CNS was greater than 100 µM each time.
As for `CC1=CC(=O)/C(=C/n2c(=S)[nH]c3ccccc32)C(=O)O1`, the TGI in the experiment with CCRF-CEM leukemia, in the experiment with EKVX NSCLC, in the experiment with HCT-116 colon, in the experiment with HCT-15 colon, with KM12 colon and with OVCAR-3 ovarian was greater than 100 µM in each case. In addition, the TGI in the experiment with PC-3 prostate, in the experiment on SF-295 CNS and in the experiment with U251 CNS was greater than 100 µM in each case.
For the molecule `Cc1cc(O)c(C(C)C)cc1N=Cc1ccccc1O`, the TGI is 0.0897 µM in the experiment on CCRF-CEM leukemia; 26.8 µM in the experiment on EKVX NSCLC; 13.5 µM in the experiment on HCT-116 colon; greater than 59.5 µM in the experiment with HCT-15 colon; 14 µM with KM12 colon; 9.7 µM in the experiment with OVCAR-3 ovarian. For the same molecule, the TGI was 22.4 µM with PC-3 prostate, 26.6 µM in the experiment on SF-295 CNS and 14.6 µM with U251 CNS.
